Where two headings read alike, the source gives them in different places.
What was measured:
[1] = system: metrazole-induced clonic seizures; assay: Subcutaneous Metrazole Seizure Threshold Test (scMET), mice; format: in vivo; settings: mice; for responders at 30 mg/kg / responders at 100 mg/kg / responders at 300 mg/kg: Mus musculus, sc; for responders at 30 mg/kg / scMET 30 0.4 h (animals protected/tested) / scMET 30 0.5 h (animals protected/tested): 30 mg/kg; for responders at 100 mg/kg / scMET 100 0.4 h (animals protected/tested) / scMET 100 0.5 h (animals protected/tested): 100 mg/kg; for responders at 300 mg/kg / scMET 300 0.4 h (animals protected/tested) / scMET 300 0.5 h (animals protected/tested): 300 mg/kg
Description: (§1) The subcutaneous injection of metrazole, which is a convulsant, produces clonic seizures in laboratory animals. The scMET test is designed to identify compounds that raise the seizure threshold of an animal. Mice are pretreated with test compound at 30, 100, and 300 mg/kg doses in a similar manner to the MES test. Rats are treated with a 50 mg/kg dose (p.o.). At the previously determined TPE of the test compound, the dose of metrazole that will induce convulsions in 97% of animals (CD97: 85 mg/kg mice) is injected into the loose fold of the skin in the midline of the neck. The animals are placed in isolation cages to minimize stress and observed for the next 30 minutes for the presence or absence of seizures. An episode of clonic spasms (approximately 3-5 seconds) of the fore and/or hindlimbs, jaws or vibrissae is taken as the endpoint.
(§2) Male and female albino CF1 mice (18-25 g, Charles River, Portage, Mich.) and male albino Sprague-Dawley rats (275-300 g, kindling test; 100-150 g all other tests; Charles River, Raleigh, N.C.) were used as experimental animals.

[2] = Acute toxicity, minimal motor impairment (rotorod), mice; format: in vivo; settings: for minimal motor impairment: at same time point / dose as observed activity; for TOX 30 0.5 h (animals toxic/tested) / TOX 30 4 h (animals toxic/tested) / TOX 100 0.5 h (animals toxic/tested) / TOX 100 4 h (animals toxic/tested) / TOX 300 0.5 h (animals toxic/tested) / TOX 300 4 h (animals toxic/tested): mice, rotorod; for TOX 30 0.5 h (animals toxic/tested) / TOX 30 4 h (animals toxic/tested): 30 mg/kg; for TOX 100 0.5 h (animals toxic/tested) / TOX 100 4 h (animals toxic/tested): 100 mg/kg; for TOX 300 0.5 h (animals toxic/tested) / TOX 300 4 h (animals toxic/tested): 300 mg/kg
Description: (§3) Toxicity was measured using the minimal motor impairment test described below.
Animals are monitored for overt signs of impaired neurological or muscular function to assess a compound's toxicity. In mice, the rotorod procedure is used to disclose minimal muscular or neurological impairment. When a mouse is placed on a rotating rod (6 rpm), the animal can maintain its equilibrium for long periods of time. The animal is considered toxic if it falls off the rotating rod three times during a 1 minute period. In rats, minimal motor deficit is indicated by ataxia, which is manifested by an abnormal, uncoordinated gait.

seizures = assay: In vivo anticonvulsant screening (MES, scMET, minimal clonic seizure), summary in words; set-up: species or system rat, mouse; settings: summary of Table 2
Description: as §3
(§4) The MES test is a model for generalized tonic-clonic seizures. The seizures are highly reproducible and electrophysiologically consistent with human seizures. The test provides information about a compound's ability to prevent the spread of seizure when all neuronal circuits of the brain are maximally active. 60 Hz of alternating current (50 mA in mice, 150 mA in rats) is applied for 2 seconds via corneal electrodes that have been treated with an electrolyte solution containing an anesthetic (0.5% tetracaine HCl). Mice are tested at a variety of intervals after an i.p. injection of […] solution of the test compound (commonly in a 0.5% solution of methylcellulose) at 30, 100, and 300 mg/kg doses. Rats are examined after a 30 mg/kg (per os, p.o.) dose that is applied in a volume of 0.04 mL/g. An animal is considered “protected” from MES-induced seizures upon removal of the hind limb extensor component of the seizure.
as §1
(§5) The minimal clonic seizure (6 Hz) test, like the MES test, is used to assess a compound's ability to protect against electrically-induced seizures. The minimal clonic (6 Hz) seizure test uses a lower frequency (6 Hz) and a longer duration of stimulation (3 seconds) than the MES test. Test compounds are pre-administered to mice via i.p. injection. At varying times, individual mice (four per time point) are challenged with sufficient current via corneal electrodes to elicit a psychomotor seizure in 97% of animals (32 mA for 3 second). Untreated mice will display seizure characterized by a minimal clonic phase followed by stereotyped, automatistic behaviors described originally as being similar to the aura of human patients with partial seizures. Animals not displaying this behavior are considered to be protected.

[3] = system: electrically-induced psychomotor seizure (6 Hz); assay: Minimal Clonic Seizure (6 Hz) test, mice; format: in vivo; settings: i.p., 100 mg/kg
Description: as §3, §5, §2

MES-induced seizures = assay: Maximal Electroshock Seizure (MES) test, mice; format: in vivo; settings: mice, i.p.; for responders at 30 mg/kg / responders at 100 mg/kg / responders at 300 mg/kg: Mus musculus, ip; for responders at 30 mg/kg / MES 30 0.5 h (animals protected/tested) / MES 30 4 h (animals protected/tested): 30 mg/kg; for responders at 100 mg/kg / MES 100 0.5 h (animals protected/tested) / MES 100 4 h (animals protected/tested): 100 mg/kg; for responders at 300 mg/kg / MES 300 0.5 h (animals protected/tested) / MES 300 4 h (animals protected/tested): 300 mg/kg
Text: as §4, §2

[4] = 0.4 h, read-out: scMET 30 0.4 h (animals protected/tested)
[5] = 0.5 h, read-out: scMET 30 0.5 h (animals protected/tested)
[6] = 0.4 h, read-out: scMET 100 0.4 h (animals protected/tested)
[7] = 0.5 h, read-out: scMET 100 0.5 h (animals protected/tested)
[8] = 0.4 h, read-out: scMET 300 0.4 h (animals protected/tested)
[9] = 0.5 h, read-out: scMET 300 0.5 h (animals protected/tested)
[10] = 0.5 h, read-out: MES 30 0.5 h (animals protected/tested)
[11] = 4 h, read-out: MES 30 4 h (animals protected/tested)
[12] = 0.5 h, read-out: MES 100 0.5 h (animals protected/tested)
[13] = 4 h, read-out: MES 100 4 h (animals protected/tested)
[14] = 0.5 h, read-out: MES 300 0.5 h (animals protected/tested)
[15] = 4 h, read-out: MES 300 4 h (animals protected/tested)

| SMILES | responders at 30 mg/kg [1, 4] [%] | responders at 30 mg/kg [1, 5] [%] | responders at 100 mg/kg [1, 6] [%] | responders at 100 mg/kg [1, 7] [%] | responders at 300 mg/kg [1, 8] [%] | responders at 300 mg/kg [1, 9] [%] | minimal motor impairment [2] | TOX 30 0.5 h (animals toxic/tested) [2] | TOX 30 4 h (animals toxic/tested) [2] | TOX 100 0.5 h (animals toxic/tested) [2] | TOX 100 4 h (animals toxic/tested) [2] | TOX 300 0.5 h (animals toxic/tested) [2] | TOX 300 4 h (animals toxic/tested) [2] | anticonvulsant activity (seizures) | 6 Hz 100 0.25 h (animals protected/tested) [3] | 6 Hz 100 0.5 h (animals protected/tested) [3] | 6 Hz 100 2 h (animals protected/tested) [3] | responders at 30 mg/kg (MES-induced seizures; [10]) [%] | responders at 30 mg/kg (MES-induced seizures; [11]) [%] | responders at 100 mg/kg (MES-induced seizures; [12]) [%] | also measured |
| --- | --- | --- | --- | --- | --- | --- | --- | --- | --- | --- | --- | --- | --- | --- | --- | --- | --- | --- | --- | --- | --- |
| CCOC(=O)C1[C@@H]2[C@@H](O)[C@@H]3O[C@H](c4ccc(F)cc4F)OC[C@H]3O[C@H]12 (stereo partly drawn) [Compound 20d, Ethyl (2R,4aR,5aS,6aR,7R,7aS)-2-(2,4-difluorophenyl)-7-hydroxyhexahydro-4H-cyclopropa[5,6]pyrano[3,2-d][1,3]dioxine-6-carboxylate] | 0 | 0 | 0 | 0 | 0 | 0 | minimal motor impairment at the same dose | 1/4 | 0/2 | 1/8 | 0/4 | 2/4 | 1/2 | exhibited activity | 1/4 | 0/4 | 0/4 | 0 | 0 | 0 | responders at 100 mg/kg (MES-induced seizures; [13]): 0%; responders at 300 mg/kg (MES-induced seizures; [14]): 0%; responders at 300 mg/kg (MES-induced seizures; [15]): 0% |
| CCOC(=O)C1[C@@H]2[C@@H](OS(N)(=O)=O)[C@@H]3O[C@H](c4ccc(OC)cc4)OC[C@H]3O[C@H]12 (stereo partly drawn) [Compound 17b, ethyl (2R,4aR,5aS,6aS,7R,7aR)-2-(4-methoxyphenyl)-7(sulfamoyloxy)hexahydro-4H-cyclopropa[5,6]pyrano[3,2-d][1,3]dioxine-6-carboxylate] | 0 | 0 | 0 | 0 | 0 | 0 |  | 0/4 | 0/2 | 0/8 | 0/4 | 2/4 | 0/2 | anticonvulsant activity | 0/4 | 1/4 | 1/4 | 0 | 0 | 0 | responders at 100 mg/kg (MES-induced seizures; [13]): 0%; responders at 300 mg/kg (MES-induced seizures; [14]): 0%; responders at 300 mg/kg (MES-induced seizures; [15]): 0% |
| CCOC(=O)C1[C@@H]2[C@@H](O)[C@@H]3O[C@H](c4ccc(C(C)C)cc4)OC[C@H]3O[C@H]12 (stereo partly drawn) [Compound 20b, Ethyl (2R,4aR,5aS,6aR,7R,7aS)-7-hydroxy-2-[4-(propan-2-yl)phenyl]hexahydro-4H-cyclopropa[5.6]pyrano[3,2-d][1,3]dioxine-6-carboxylate] |  |  |  |  |  |  | minimal motor impairment at the same time point | 1/4 | 0/2 | 0/8 | 0/4 | 0/4 | 0/2 | showed activity |  |  |  |  |  |  | scMET 30 0.4 h (animals protected/tested) ([1]; 0.4 h): 0/1; scMET 30 0.5 h (animals protected/tested) ([1]; 0.5 h): 0/1; scMET 100 0.4 h (animals protected/tested) ([1]; 0.4 h): 0/1; scMET 100 0.5 h (animals protected/tested) ([1]; 0.5 h): 0/1; scMET 300 0.4 h (animals protected/tested) ([1]; 0.4 h): 0/1; scMET 300 0.5 h (animals protected/tested) ([1]; 0.5 h): 0/1; MES 30 0.5 h (animals protected/tested) (MES-induced seizures; 0.5 h): 1/5; MES 30 4 h (animals protected/tested) (MES-induced seizures; 4 h): 0/1; MES 100 0.5 h (animals protected/tested) (MES-induced seizures; 0.5 h): 0/7; MES 100 4 h (animals protected/tested) (MES-induced seizures; 4 h): 0/3; MES 300 0.5 h (animals protected/tested) (MES-induced seizures; 0.5 h): 0/1; MES 300 4 h (animals protected/tested) (MES-induced seizures; 4 h): 0/1 |
| COC(=O)[C@H]1C2O[C@@H]3CO[Si](C(C)(C)C)(C(C)(C)C)O[C@@H]3[C@H](O)[C@@H]21 (stereo partly drawn) [Compound 14b, (1R,1as,2R,2aR,6aR)-4,4-di-tert-butyl-2-hydroxy-hexahydro-3,5,7-trioxa-4-silacyclopropa[b]naphthalene-1-carboxylic acid (S)-methyl ester] |  |  |  |  |  |  |  | 0/4 | 0/2 | 2/8 | 0/4 | 4/4 | 0/2 |  |  |  |  |  |  |  | scMET 30 0.4 h (animals protected/tested) ([1]; 0.4 h): 0/1; scMET 30 0.5 h (animals protected/tested) ([1]; 0.5 h): 0/1; scMET 100 0.4 h (animals protected/tested) ([1]; 0.4 h): 0/1; scMET 100 0.5 h (animals protected/tested) ([1]; 0.5 h): 0/1; scMET 300 0.4 h (animals protected/tested) ([1]; 0.4 h): 0/1; scMET 300 0.5 h (animals protected/tested) ([1]; 0.5 h): 0/1; MES 30 0.5 h (animals protected/tested) (MES-induced seizures; 0.5 h): 0/1; MES 30 4 h (animals protected/tested) (MES-induced seizures; 4 h): 0/1; MES 100 0.5 h (animals protected/tested) (MES-induced seizures; 0.5 h): 0/3; MES 100 4 h (animals protected/tested) (MES-induced seizures; 4 h): 0/3; MES 300 0.5 h (animals protected/tested) (MES-induced seizures; 0.5 h): 0/1; MES 300 4 h (animals protected/tested) (MES-induced seizures; 4 h): 0/1 |

Reference: US8222218B2, “Cyclopropanated carbohydrates” (Seton Hall University, priority 2008, dated 2012)
